The test system of assay [1] is rat smooth muscle cells. Nature of the assay: Antiproliferative activity (ri, relative to heparin) in rat smooth muscle cells. It counts as cell-based. Further details: key: growth inhibition relative to heparin at 100 μg/ml, same experiment. Particulars: 100 μg/ml, 48 h, relative to heparin at 100 μg/ml in the same experiment. The method, then:
Antiproliferative Activity
The antiproliferative activity of a substance is expressed as the ri value which is a comparative value to the corresponding activity of heparin and which was determined in cell cultures as follows: rat smooth muscle cells were applied to cell culture plates in a density of 8×10^3 cells/well (medium: DMEM with 10% FCS. Cultivation at 37° C. and 5% CO2). After 4 hours, the number of adhered cells was determined and the substances to be tested (100 μg/ml, dissolved in H2 O) were added. […] Subsequently, the cells were incubated for 48 h. and thereafter the cell count was determined once more.
The inhibition i of the cell growth, that is, the reduction in the growth rate of the cells in percent compared to the control, was calculated from these values. [formula] the growth rate μbeing calculated as [formula] in which Z is the number of cells and d is the time in days.
Finally, ri --the relative inhibitory activity--which expresses the activity of a substance (at 100 μg/ml) in comparison to the activity of heparin in the same concentration in the same experiment, was calculated: [formula] Blood Coagulation Inhibition

For assay [2], the target named is T1, Factor Xa (Bos taurus, UniProt P00743).
T1 sequence (P00743 41-180 limits assumed): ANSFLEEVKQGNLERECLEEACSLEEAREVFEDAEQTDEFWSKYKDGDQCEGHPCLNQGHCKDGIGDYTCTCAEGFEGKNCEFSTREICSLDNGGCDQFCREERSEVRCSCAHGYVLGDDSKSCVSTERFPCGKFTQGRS
The assay is described as follows: Blood coagulation inhibition: inhibition of Factor Xa in the Chromogen Substrate Test. The format is biochemical.
Protocol: (§1) Inhibition of thrombin or Factor Xa in the Chromogen Substrate Test (Teien et al., Thrombosis Research 10, 399-410 (1977)): The determination was effected in a Cobas-Bio centrifugal automatic spectrophotometer. The buffer solution used consisted of 50 mM Tris buffer, 180 mM NaCl, 7.5 mM EDTA Na2, 1% PEG 6000 and 0.02% Tween 80, pH 8.4. The test solution consisted of 50 μl of buffer, 30 μl of antithombin III (1U/ml, Kabi Diagnostica) and 20 μl of plasma which contained various concentrations of test compounds. 30 μl of sample solution and 20 μl of water with 180 μl of thrombin (1U/ml, Thrombin Reagent Roche Basle) were added to the test cuvette in the automatic analyzer. After incubation at 37° C. for 240 seconds, 60 μl of S-2238 (H-D-Phe-Pip-Arg-NH.pNA, Kabi Diagnostica, Mondal, Sweden, 0.75 mM in water) and 20 μl of water were added. The liberation of pNA (p-nitro-aniline) was followed during 60 seconds at 405 nm in 10 second intervals in comparison to water as the blank.
The inhibition of Factor Xa was measured in the same manner using a solution of Factor Xa (2.8 nkat/ml and 2 mM S-2222 (Bz-CO-Ile-Glu-Arg-NH.pNA, Kabi Diagnostica) in water in place of thrombin and, respectively, S-2238.

For assay [3], the target named is T2, thrombin (Homo sapiens, UniProt P00734).
T2 construct: purchased Roche Basle (Thrombin Reagent)
The format is biochemical.
Protocol: as §1

Where [4] appears, read: with antithrombin III and plasma, S-2222 substrate; read-out: Anticoagulative Activity IC50 Factor Xa.
Where [5] appears, read: with antithrombin III and plasma, S-2238 substrate, 37° C., pH 8.4; read-out: Anticoagulative Activity IC50 Thrombin.
[6] abbreviates: read-out: Anticoagulative Activity IC50 Factor Xa; with antithrombin III and plasma, S-2222 substrate.
The mark [7] stands for this setting: read-out: Anticoagulative Activity IC50 Thrombin; with antithrombin III and plasma, S-2238 substrate, 37° C., pH 8.4.

Counter-ions that a name gives are not always drawn. Like-named read-outs stand apart in the source and are kept apart here.

One may read the IC50 as the concentration that inhibits the measured activity by half.

Turning to `O=C(CO[C@@H]1[C@@H](NC(=O)c2ccc(-c3ccc(C(=O)N[C@H]4[C@@H](OCc5ccccc5)O[C@@H]5CO[C@@H](c6ccccc6)O[C@H]5[C@@H]4OCC(=O)N[C@H]4[C@@H](OCc5ccccc5)O[C@H](COS(=O)(=O)O)[C@@H](OS(=O)(=O)O)[C@@H]4OS(=O)(=O)O)cc3)cc2)[C@@H](OCc2ccccc2)O[C@@H]2CO[C@@H](c3ccccc3)O[C@@H]12)N[C@H]1[C@@H](OCc2ccccc2)O[C@H](COS(=O)(=O)O)[C@@H](OS(=O)(=O)O)[C@@H]1OS(=O)(=O)O` [Example 11, (Biphenyl-4,4'-dicarboxylic acid) bis-[[benzyl 3-O-[(benzyl 2-desoxy-2,3,4-tri-O-sulfo-a-D-glucopyranoside)-2-yl-carbamoylmethyl]-4,6-(R)-O-benzylidene-2-desoxy-a-D-glucopyranosid-2-yl]-amide] hexasodium salt], the “Antiproliferative Activity ri (relative inhibitory activity versus heparin)” value in assay [1] was found to be 1.7. In addition, the IC50 in assay [2] (setting [4]) and in assay [3] (setting [5]) was more than 495 µM each time.
As to `O=C(N[C@H]1[C@@H](OCc2ccccc2)O[C@H](CNC(=O)[C@H](OS(=O)(=O)O)[C@@H](OS(=O)(=O)O)[C@H](OS(=O)(=O)O)[C@@H](COS(=O)(=O)O)OS(=O)(=O)O)[C@@H](OS(=O)(=O)O)[C@@H]1OS(=O)(=O)O)c1ccc(/C=C\c2ccc(C(=O)N[C@H]3[C@@H](OCc4ccccc4)O[C@H](CNC(=O)[C@H](OS(=O)(=O)O)[C@@H](OS(=O)(=O)O)[C@H](OS(=O)(=O)O)[C@@H](COS(=O)(=O)O)OS(=O)(=O)O)[C@@H](OS(=O)(=O)O)[C@@H]3OS(=O)(=O)O)cc2)cc1` [Example 23, (Z)-stilbene-4,4'-dicarboxylic acid bis-[[benzyl 2,6-didesoxy-6-(2,3,4,5,6-penta-O-sulfo-D-gluconoylamino)-3,4-di-O-sulfo-α-D-glucopyranosid-2-yl]-amide] tetradecasodium salt], the “Antiproliferative Activity ri (relative inhibitory activity versus heparin)” value in assay [1] came to 1.8. The half-maximal inhibitory concentration (IC50) in assay [2] (setting [4]) and in assay [3] (setting [5]) was more than 445 µM each time.
For the molecule `O=C(NC[C@H]1O[C@H](OCc2ccccc2)[C@H](NC(=O)c2ccc(NC[C@H](OS(=O)(=O)O)[C@@H](OS(=O)(=O)O)[C@H](OS(=O)(=O)O)[C@@H](COS(=O)(=O)O)OS(=O)(=O)O)c([N+](=O)[O-])c2)[C@@H](OS(=O)(=O)O)[C@@H]1OS(=O)(=O)O)c1cc(C(=O)NC[C@H]2O[C@H](OCc3ccccc3)[C@H](NC(=O)c3ccc(NC[C@H](OS(=O)(=O)O)[C@@H](OS(=O)(=O)O)[C@H](OS(=O)(=O)O)[C@@H](COS(=O)(=O)O)OS(=O)(=O)O)c([N+](=O)[O-])c3)[C@@H](OS(=O)(=O)O)[C@@H]2OS(=O)(=O)O)cc(C(=O)NC[C@H]2O[C@H](OCc3ccccc3)[C@H](NC(=O)c3ccc(NC[C@H](OS(=O)(=O)O)[C@@H](OS(=O)(=O)O)[C@H](OS(=O)(=O)O)[C@@H](COS(=O)(=O)O)OS(=O)(=O)O)c([N+](=O)[O-])c3)[C@@H](OS(=O)(=O)O)[C@@H]2OS(=O)(=O)O)c1` [Example 30, Benzene-1,3,5-tricarboxylic acid tris-[[benzyl 2,6-didesoxy-2-[4-(2,3,4,5,6-penta-O-sulfo-D-glucit-1-ylamino)-3-nitro-benzoylamino]-3,4-di-O-sulfo-a-D-glucopyranosid-6-yl]-amide] henicosasodium salt], in assay [1], the “Antiproliferative Activity ri (relative inhibitory activity versus heparin)” value was found to be 1.6. Further, the IC50 in assay [2] (setting [6]) and in assay [3] (setting [7]) was more than 276 µM each time.
Turning to `O=C(NC[C@H]1O[C@H](OCc2ccccc2)[C@H](NC(=O)c2ccc(NC[C@H](OS(=O)(=O)O)[C@@H](OS(=O)(=O)O)[C@H](OS(=O)(=O)O)[C@@H](COS(=O)(=O)O)OS(=O)(=O)O)c([N+](=O)[O-])c2)[C@@H](OS(=O)(=O)O)[C@@H]1OS(=O)(=O)O)c1ccc(/C=C/c2ccc(C(=O)NC[C@H]3O[C@H](OCc4ccccc4)[C@H](NC(=O)c4ccc(NC[C@H](OS(=O)(=O)O)[C@@H](OS(=O)(=O)O)[C@H](OS(=O)(=O)O)[C@@H](COS(=O)(=O)O)OS(=O)(=O)O)c([N+](=O)[O-])c4)[C@@H](OS(=O)(=O)O)[C@@H]3OS(=O)(=O)O)cc2Cl)cc1` [Example 32, (E)-2-Chloro-stilbene-4,4'-dicarboxylic acid bis-[[benzyl 2,6-didesoxy-2-[4-(2,3,4,5,6-penta-O-sulfo-D-glucit-1-ylamino)-3-nitro-benzoylamino]-3,4-di-O-sulfo-a-D-glucopyranosid-6-yl]-amide] tetradecasodium salt], the “Antiproliferative Activity ri (relative inhibitory activity versus heparin)” value in assay [1] is recorded as 1.4. For the same molecule, the IC50 in assay [2] (setting [6]) and in assay [3] (setting [7]) was more than 387 µM each time.
With `O=C(NC[C@H]1O[C@H](OCc2ccccc2)[C@H](NC(=O)c2ccc(NC[C@H](OS(=O)(=O)O)[C@@H](OS(=O)(=O)O)[C@H](OS(=O)(=O)O)[C@@H](COS(=O)(=O)O)OS(=O)(=O)O)c([N+](=O)[O-])c2)[C@@H](OS(=O)(=O)O)[C@@H]1OS(=O)(=O)O)c1cccc(C(=O)NC[C@H]2O[C@H](OCc3ccccc3)[C@H](NC(=O)c3ccc(NC[C@H](OS(=O)(=O)O)[C@@H](OS(=O)(=O)O)[C@H](OS(=O)(=O)O)[C@@H](COS(=O)(=O)O)OS(=O)(=O)O)c([N+](=O)[O-])c3)[C@@H](OS(=O)(=O)O)[C@@H]2OS(=O)(=O)O)c1` [Example 33, Isophthalic acid bis-[[benzyl 2,6-didesoxy-2-[4-(2,3,4,5,6-penta-O-sulfo-D-glucit-1-ylamino)-3-nitro-benzoylamino]-3,4-di-O-sulfo-a-D-glucopyranosid-6-yl]-amide] tetradecasodium salt], the “Antiproliferative Activity ri (relative inhibitory activity versus heparin)” value in assay [1] was 1.5. The IC50 in assay [2] (setting [6]) and in assay [3] (setting [7]) was more than 409 µM in each case.
For `O=C(N[C@H]1[C@@H](OCc2ccccc2)O[C@H](CN2C(=O)c3ccc4c5c(ccc(c35)C2=O)C(=O)N(C[C@H]2O[C@H](OCc3ccccc3)[C@H](NC(=O)c3ccc(NC[C@H](OS(=O)(=O)O)[C@@H](OS(=O)(=O)O)[C@H](OS(=O)(=O)O)[C@@H](COS(=O)(=O)O)OS(=O)(=O)O)c([N+](=O)[O-])c3)[C@@H](OS(=O)(=O)O)[C@@H]2OS(=O)(=O)O)C4=O)[C@@H](OS(=O)(=O)O)[C@@H]1OS(=O)(=O)O)c1ccc(NC[C@H](OS(=O)(=O)O)[C@@H](OS(=O)(=O)O)[C@H](OS(=O)(=O)O)[C@@H](COS(=O)(=O)O)OS(=O)(=O)O)c([N+](=O)[O-])c1` [Example 34, 2,7-Bis-[benzyl 2,6-didesoxy-2-[3-nitro-4-(2,3,4,5,6-penta-O-sulfo-D-glucit-1-ylamino)-benzoylamino]-3,4-di-O-sulfo-a-D-1 5 glucopyranosid-6-yl]-1,2,3,6,7,8-hexahydro-benzo[lmn][3,8] phenanthroline-1,3,6,8-tetraone tetradecasodium salt], the “Antiproliferative Activity ri (relative inhibitory activity versus heparin)” value in assay [1] was determined as 3.9. Besides, the IC50 in assay [2] (setting [6]) and in assay [3] (setting [7]) was more than 393 µM each time.

The record behind these values is patent publication US5767268A, “Sulfuric acid esters of amino sugars” (Hoffmann-La Roche Inc., priority 1995, dated 1998).
